Laboratory results published in patent publication US9023858B2, “Substituted pyrido[2,3-d]pyrimidines as delta-5-desaturase inhibitors” (Takeda Pharmaceutical Company Limited, priority 2010, dated 2015).
Where a name gives a salt, the structure may show the parent alone.

Assays:
delta-5-desaturase [1] = molecular target: T1, delta-5-desaturase (Rattus norvegicus, UniProt Q920R3); assay: Inhibitory activity on binding of [3H]-labelled Reference Example 1 ligand to delta-5-desaturase (rat liver microsome fraction); conditions: test compound 10 μM; for inhibition at 10 µM: 3 nM tritiated ligand of Reference Example 1, read-out: Binding inhibitory activity against compound bind to delta-5-desaturase Binding inhibition rate (%) at 10 μM
T1 construct: a rat liver microsome fraction (10 μl) diluted to 3 mg/ml with a microsome buffer; from tissue; host or cells: rat liver microsome fraction
T1 sequence (Q920R3 whole entry): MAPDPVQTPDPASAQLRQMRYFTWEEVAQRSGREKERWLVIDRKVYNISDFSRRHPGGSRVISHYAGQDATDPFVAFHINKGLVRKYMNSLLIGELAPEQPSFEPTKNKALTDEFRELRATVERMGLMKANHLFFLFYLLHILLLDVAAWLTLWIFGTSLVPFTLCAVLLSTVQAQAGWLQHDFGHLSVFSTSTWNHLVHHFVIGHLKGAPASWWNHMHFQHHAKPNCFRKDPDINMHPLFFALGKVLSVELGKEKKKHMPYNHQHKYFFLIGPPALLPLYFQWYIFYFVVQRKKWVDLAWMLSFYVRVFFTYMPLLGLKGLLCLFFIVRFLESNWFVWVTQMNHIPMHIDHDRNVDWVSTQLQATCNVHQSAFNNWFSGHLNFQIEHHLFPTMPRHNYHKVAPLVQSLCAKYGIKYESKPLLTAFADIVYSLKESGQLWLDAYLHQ
Description: Inhibitory Activity on Binding of N-[2-({4-oxo-3-[4-(2,2,2-trifluoroethoxy)[2,6-^3H2]phenyl]-3,4-dihydrothieno[3,4-d]pyrimidin-2-yl}sulfanyl)ethyl]acetamide (Reference Example 1) to delta-5-desaturase)
All tests were performed at room temperature at 200 μL/well. A rat liver microsome fraction (30 μg/well) was preincubated with a test compound at a final concentration of 10 μM for 15 min in an assay buffer (10 mM Tris-HCl (pH 7.5), 100 mM KCl, 10 mM NaF, 3 mM MgCl2, 0.005% Tween20 and 1 mM GSH). N-[2-({4-oxo-3-[4-(2,2,2-trifluoroethoxy) [2,6-^3H2]phenyl]-3,4-dihydrothieno[3,4-d]pyrimidin-2-yl}sulfanyl)ethyl]acetamide was added to a final concentration of 3 nM and the mixture was incubated for 150 min. For Bound/Free separation, the membrane fraction was added on a GF/C glass filter using a cell harvester. The GF/C glass filter was washed 5 times with 300 μl of ice-cooled assay buffer (without 0.005% Tween) to separate the ligand bound to delta-5-desaturase. 50 μl of MicroScinti 0 was added, and the radioactivity on the filter was measured by TopCount. To evaluate non-specific binding, 10 μM N-[2-({4-oxo-3-[4-(2,2,2-trifluoroethoxy)phenyl]-3,4-dihydrothieno[3,4-d]pyrimidin-2-yl}sulfanyl)ethyl]acetamide was used. The inhibitory rate (%) of the test compound (10 μM) on the binding of N-[2-({4-oxo-3-[4-(2,2,2-trifluoroethoxy) [2,6-^3H2]phenyl]-3,4-dihydrothieno[3,4-d]pyrimidin-2-yl}sulfanyl)ethyl]acetamide to delta-5-desaturase was determined.

delta-5-desaturase [2] = molecular target: T1, delta-5-desaturase; assay: Delta-5-desaturase inhibitory activity using rat liver microsome; type: biochemical; conditions: test compound 10 μM
Description: Delta-5-Desaturase Inhibitory Activity Using Rat Liver Microsome
The inhibitory activity of the test compound on delta-5-desaturase was measured by the method described below. To a solution of the test compound in DMSO prepared in advance was secondarily diluted with a buffer (300 mM NaH2PO4 [pH 7.4], 450 mM KCl, 30 mM NaF, 9 mM MgCl2, 4.5 mM glutathione [reduced form], 0.3% BSA [fatty acid free, SIGMA]) to give an assay buffer. The assay buffer (10 μl) was dispensed to a polypropylene deep 96-well block, and a rat liver microsome fraction (10 μl) diluted to 3 mg/ml with a microsome buffer (10 mM Tris-HCl [pH 7.4], 1 mM EDTA, 250 mM sucrose) was added. The enzyme reaction was started by adding 9 mM NADH, 9 mM ATP, 0.9 mM CoA, 10 μCi/ml (8E,11E,14E)-(1-^14C)eicosa-8,11,14-trienoic acid (PerkinElmer Inc.) (10 μl). The enzyme reaction was performed for 120 min at room temperature, and discontinued by the addition of 10 μl of 2.5M NaOH. After discontinuation of the reaction, the plate was sealed and incubated overnight at 55° C. to allow saponification. The fatty acid was extracted with solvent based on the Bligh & Dyer method described in Can. J. Biochem. Physiol., vol. 37, page 911 (1959) by adding formic acid:methanol:chloroform (1:6:3) (200 μl), maintaining the single layer state, sufficiently stirring the mixture and adding pure water (120 μl) for separation into two layers. The lower chloroform layer (10 μl) was spotted on a reversed-phase TLC plate (RP-18, 1154230001, Merck Japan, Ltd.), developed with acetonitrile:pure water:acetic acid (95:4.5:0.5), and the dried TLC plate was transcribed on Imaging Plate (Fuji Photo Film Co., Ltd.) for 5 hr or longer. The detection was performed using BAS-5000 (Fuji Photo Film Co., Ltd.), and the obtained spot image was numerically converted by Multi Gauge Ver2.3 (Fuji Photo Film Co., Ltd.) and a delta-5-desaturase inhibitory rate (%) of 10 μM test compound was determined.

delta-5-desaturase [3] = molecular target: T2, delta-5-desaturase (Mus musculus, UniProt Q920L1); assay: Delta-5-desaturase inhibitory action in vivo (liver AA/DGLA ratio in mice); conditions: 3 mg/kg by gavage for 4 days; male C57BL/6J mice; liver phospholipid fraction; solvent administration group as 100%
T2 construct: the mice were anesthetized, and the liver was isolated; tissue CLEA Japan, Inc; host or cells: liver of C57BL/6J mice (in vivo dosing)
T2 sequence (Q920L1 1-447): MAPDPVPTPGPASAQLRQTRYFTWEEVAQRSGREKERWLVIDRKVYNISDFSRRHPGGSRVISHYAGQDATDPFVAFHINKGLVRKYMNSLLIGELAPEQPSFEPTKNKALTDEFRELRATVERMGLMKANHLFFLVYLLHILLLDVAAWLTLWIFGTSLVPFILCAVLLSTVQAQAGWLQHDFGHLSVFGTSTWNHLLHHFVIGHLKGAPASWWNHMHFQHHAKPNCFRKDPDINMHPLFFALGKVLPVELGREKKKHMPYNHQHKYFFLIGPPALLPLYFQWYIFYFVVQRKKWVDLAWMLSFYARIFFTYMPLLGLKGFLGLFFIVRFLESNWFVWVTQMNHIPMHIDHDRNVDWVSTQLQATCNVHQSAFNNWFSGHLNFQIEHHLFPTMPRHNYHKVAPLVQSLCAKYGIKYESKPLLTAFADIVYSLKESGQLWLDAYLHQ
Description: Delta-5-Desaturase Inhibitory Action In Vivo
The delta-5-desaturase inhibitory action of the test compound in vivo was evaluated by the following method. A suspension of a test compound (3 mg/kg) in 0.5% methylcellulose was administered by gavage every morning at 10 mL/kg for 4 days to 7- to 9-week-old male normal mice (C57BL/6J, CLEA Japan, Inc.) acclimated with a normal chow feed (CE-2, CLEA Japan, Inc.) in individual cages. In the next morning of the final administration, the mice were anesthetized, and the liver was isolated. Total lipid was extracted from about 40 mg of a liver sample with hexane-propanol solution, and a phospholipid fraction was extracted using a solid phase extraction column (Sep-Pak Vac NH2, Waters) and labeled with an esterified long-chain and short-chain fatty acid labeling reagent (YMC). The arachidonic acid and dihomo-γ-linolenic acid contents of the sample after labeling were measured by high performance liquid chromatography (Agilent 1200, Agilent Technologies). The arachidonic acid (AA) content was divided by the content of dihomo-γ-linolenic acid (DGLA) to obtain an AA/DGLA ratio. The decrease rate of the test compound administration group was calculated based on the AA/DGLA ratio of the solvent administration group as 100%, which was used as an index of the liver delta-5-desaturase inhibitory action in vivo.

delta-5-desaturase [4] = molecular target: T3, delta-5-desaturase (Homo sapiens, UniProt O60427); assay: Delta-5-desaturase inhibitory activity using HepG2 cell; type: cell-based; conditions: test compound 1 μM
T3 construct: endogenous in cells; host or cells: HepG2
T3 sequence (O60427 whole entry): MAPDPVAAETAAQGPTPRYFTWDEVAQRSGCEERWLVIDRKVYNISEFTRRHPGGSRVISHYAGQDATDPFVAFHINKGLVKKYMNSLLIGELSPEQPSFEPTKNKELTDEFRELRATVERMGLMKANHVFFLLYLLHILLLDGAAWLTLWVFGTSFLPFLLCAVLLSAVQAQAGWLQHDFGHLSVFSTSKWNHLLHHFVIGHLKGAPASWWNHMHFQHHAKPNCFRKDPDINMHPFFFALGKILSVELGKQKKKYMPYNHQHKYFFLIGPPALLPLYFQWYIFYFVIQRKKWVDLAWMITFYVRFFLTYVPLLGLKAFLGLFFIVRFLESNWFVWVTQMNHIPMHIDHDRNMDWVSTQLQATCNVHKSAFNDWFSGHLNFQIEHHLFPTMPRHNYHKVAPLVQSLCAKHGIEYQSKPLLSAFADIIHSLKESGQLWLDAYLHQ
Description: Delta-5-Desaturase Inhibitory Activity Using HepG2 Cell
HepG2 was plated on a 96-well plate at 1×10^5 cells/well, and cultured overnight in DMEM (Dulbecco's modified Eagle medium) containing 10% FBS (fetal bovine serum). After washing (200 μL×2) with PBS (phosphate buffered saline), 40 μL of a reaction medium (DMEM, penicillin/streptomycin, 0.3% BSA) containing the test compound was added, and the mixture was preincubated in a CO2 incubator at 37° C. for 30 min. The reaction was started by adding a reaction medium (20 μL) containing 0.1 μCi [^14C]Eicosatrienoic acid, and the mixture was incubated in a CO2 incubator at 37° C. Incubation was performed for 3 hr, the cells were washed twice with 200 μL of PBS, detached with 50 μL of trypsin-EDTA and placed on a 96-deep well block. Furthermore, 20 μL of 2.5N NaOH was added, the plate was sealed and incubated overnight at 55° C. to allow saponification. The fatty acid extraction included acidifying with 10 μL of formic acid, adding chloroform:methanol (1:4), stirring, and further adding 200 μL of pure water to separate into two layers. The operation after development with TLC followed the method of detection system using TLC in a system using a rat liver microsome. A delta-5-desaturase inhibitory rate (%) of 1 μM test compound was determined.

Binding inhibitory activity against compound bind to delta-5-desaturase Binding inhibition rate (%) at 10 μM (delta-5-desaturase [1]; 3 nM tritiated ligand of Reference Example 1, sodium salt) | delta-5-desaturase inhibitory activity (at liver microsome) Inhibitory activity (%) at 10 μM (delta-5-desaturase [2]; sodium salt, 10 µM) | lowering rate (%) of arachidonic acid/dihomo-γ-linolenic acid ratio (delta-5-desaturase [3]) | inhibition at 10 µM (delta-5-desaturase [1]) | inhibition at 10 µM (delta-5-desaturase [2]) | inhibition at 1 µM (delta-5-desaturase [4]) | SMILES
94% | 98% | 71% | – | – | – | CCOc1nc2[nH]c(=O)ccc2c(=O)n1-c1ccc(OCC(F)(F)F)cc1 [Example 10, 2-ethoxy-3-[4-(2,2,2-trifluoroethoxy)phenyl]pyrido[2,3-d]pyrimidine-4,7(3H,8H)-dione sodium salt]
– | – | – | 93% | 97% | 98% | CCSc1nc2nc(C(N)=O)ccc2c(=O)n1-c1ccc(OCC(F)(F)F)cc1 [Example 27, 2-(ethylsulfanyl)-4-oxo-3-[4-(2,2,2-trifluoroethoxy)phenyl]-3,4-dihydropyrido[2,3-d]pyrimidine-7-carboxamide]
– | – | – | 92% | 92% | 89% | CCSc1nc2c(c(=O)n1-c1ccc(OCC(F)(F)F)cc1)CCNC2=O [Example 28, 2-(ethylsulfanyl)-3-[4-(2,2,2-trifluoroethoxy)phenyl]-3,5,6,7-tetrahydropyrido[3,4-d]pyrimidine-4,8-dione]
– | – | – | 97% | 99% | 96% | CCSc1nc2c(=O)[nH]ccc2c(=O)n1-c1ccc(OCC(F)(F)F)cc1 [Example 29, 2-(ethylsulfanyl)-3-[4-(2,2,2-trifluoroethoxy)phenyl]-3,7-dihydropyrido[3,4-d]pyrimidine-4,8-dione]
– | – | – | 97% | 97% | 96% | CCCSc1nc2c(=O)[nH]ccc2c(=O)n1-c1ccc(OCC(F)(F)F)cc1 [Example 30, 2-(propylsulfanyl)-3-[4-(2,2,2-trifluoroethoxy)phenyl]-3,7-dihydropyrido[3,4-d]pyrimidine-4,8-dione]
– | – | – | 98% | 96% | 96% | O=c1[nH]ccc2c(=O)n(-c3ccc(OCC(F)(F)F)cc3)c(OCC(F)(F)F)nc12 [Example 31, 2-(2,2,2-trifluoroethoxy)-3-[4-(2,2,2-trifluoroethoxy)phenyl]-3,7-dihydropyrido[3,4-d]pyrimidine-4,8-dione]
– | – | – | 98% | 96% | 88% | CCOc1nc2c(=O)[nH]ccc2c(=O)n1-c1ccc(OCC(F)(F)F)cc1 [Example 32, 2-ethoxy-3-[4-(2,2,2-trifluoroethoxy)phenyl]-3,7-dihydropyrido[3,4-d]pyrimidine-4,8-dione]
– | – | – | 96% | 101% | 93% | CCSc1nc2c(OC)nccc2c(=O)n1-c1ccc(OCC(F)(F)F)cc1 [Example 33, 2-(ethylsulfanyl)-8-methoxy-3-[4-(2,2,2-trifluoroethoxy)phenyl]pyrido[3,4-d]pyrimidin-4(3H)-one]
– | – | – | 88% | 98% | 93% | CCOc1nc2c(OCCOC)nccc2c(=O)n1-c1ccc(OCC(F)(F)F)cc1 [Example 34, 2-ethoxy-8-(2-methoxyethoxy)-3-[4-(2,2,2-trifluoroethoxy)phenyl]pyrido[3,4-d]pyrimidin-4(3H)-one]
– | – | – | 89% | 91% | 91% | COCCOc1nccc2c(=O)n(-c3ccc(OCC(F)(F)F)cc3)c(OCCOC)nc12 [Example 35, 2,8-bis(2-methoxyethoxy)-3-[4-(2,2,2-trifluoroethoxy)phenyl]pyrido[3,4-d]pyrimidin-4(3H)-one]
– | – | – | 101% | 101% | 92% | CCSc1nc2c(=O)n(C)ccc2c(=O)n1-c1ccc(OCC(F)(F)F)cc1 [Example 36, 2-(ethylsulfanyl)-7-methyl-3-[4-(2,2,2-trifluoroethoxy)phenyl]-3,7-dihydropyrido[3,4-d]pyrimidine-4,8-dione]
– | – | – | 97% | 99% | 93% | CCSc1nc2nc(OC)cnc2c(=O)n1-c1ccc(OCC(F)(F)F)cc1 [Example 37, 2-(ethylsulfanyl)-7-methoxy-3-[4-(2,2,2-trifluoroethoxy)phenyl]pteridin-4(3H)-one]
– | – | – | 91% | 95% | 76% | CCSc1nc2[nH]c(=O)cnc2c(=O)n1-c1ccc(OCC(F)(F)F)cc1 [Example 38, 2-(ethylsulfanyl)-3-[4-(2,2,2-trifluoroethoxy)phenyl]pteridine-4,7(3H,8H)-dione]
